Assay results taken from article PMC8157854, “Radiosynthesis and Evaluation of Talazoparib and Its Derivatives as PARP-1-Targeting Agents” (Biomedicines, 2021).
Values belong to the compound of their own block, whether it stands above or below them.

What was measured:
PC-3 prostate tumors = test: Biodistribution of [18F]talazoparib in PC-3 tumor-bearing SCID mice; type: in vivo; details: for tumor uptake: PC-3 tumor
From the text: 2.5. Xenograft Model The animal studies were approved by Washington University’s Institutional Animal Care and Use Committee (IACUC), Protocol #20-0214 approved 7 August 2020. The overall animal care was following The Guide for the Care and Use of Laboratory Animals from the National Research Council and the USDA Animal Care Resource Guide. Mature SCID mice from Charles River Laboratories were allowed to acclimate in an AALAC accredited housing facility for at least 1 week before tumor implantation for the biodistribution study. Male SCID mice (4 weeks old, n = 4/group, 2 groups), with 1 × 10^7 PC-3 prostate cancer cells implanted subcutaneously in the right shoulder grew for about 35 days before the radiotracer biodistribution studies. 2.6. Biodistribution Animals were intravenously injected with [^18F]talazoparib (120 µCi) in 10% ethanol/saline (100 µL) via the tail vein. At the specified time point (4 and 8 h), the mice were sacrificed, the blood, lungs, liver, spleen, kidneys, muscle, fat, heart, brain, bone, bone marrow, prostate, pancreas, and tumor were harvested, weighed, and counted in a γ-counter. The percentage injected dose per gram of tissue (%ID/g) was determined by decay correction of the [^18F]talazoparib for each sample and then normalized by the standard injected radiotracer dose and the sample weight.

PARP-1 = PARP-1 (Homo sapiens, UniProt P09874); test: Competitive binding assay with [3H]WC-DZ in U251MG cells; details: for pseudoHill coefficient n′H: competitive binding vs [3H]WC-DZ in U251MG cells, Mean ± SEM, n = 3
Chain of PARP-1 (P09874 whole entry): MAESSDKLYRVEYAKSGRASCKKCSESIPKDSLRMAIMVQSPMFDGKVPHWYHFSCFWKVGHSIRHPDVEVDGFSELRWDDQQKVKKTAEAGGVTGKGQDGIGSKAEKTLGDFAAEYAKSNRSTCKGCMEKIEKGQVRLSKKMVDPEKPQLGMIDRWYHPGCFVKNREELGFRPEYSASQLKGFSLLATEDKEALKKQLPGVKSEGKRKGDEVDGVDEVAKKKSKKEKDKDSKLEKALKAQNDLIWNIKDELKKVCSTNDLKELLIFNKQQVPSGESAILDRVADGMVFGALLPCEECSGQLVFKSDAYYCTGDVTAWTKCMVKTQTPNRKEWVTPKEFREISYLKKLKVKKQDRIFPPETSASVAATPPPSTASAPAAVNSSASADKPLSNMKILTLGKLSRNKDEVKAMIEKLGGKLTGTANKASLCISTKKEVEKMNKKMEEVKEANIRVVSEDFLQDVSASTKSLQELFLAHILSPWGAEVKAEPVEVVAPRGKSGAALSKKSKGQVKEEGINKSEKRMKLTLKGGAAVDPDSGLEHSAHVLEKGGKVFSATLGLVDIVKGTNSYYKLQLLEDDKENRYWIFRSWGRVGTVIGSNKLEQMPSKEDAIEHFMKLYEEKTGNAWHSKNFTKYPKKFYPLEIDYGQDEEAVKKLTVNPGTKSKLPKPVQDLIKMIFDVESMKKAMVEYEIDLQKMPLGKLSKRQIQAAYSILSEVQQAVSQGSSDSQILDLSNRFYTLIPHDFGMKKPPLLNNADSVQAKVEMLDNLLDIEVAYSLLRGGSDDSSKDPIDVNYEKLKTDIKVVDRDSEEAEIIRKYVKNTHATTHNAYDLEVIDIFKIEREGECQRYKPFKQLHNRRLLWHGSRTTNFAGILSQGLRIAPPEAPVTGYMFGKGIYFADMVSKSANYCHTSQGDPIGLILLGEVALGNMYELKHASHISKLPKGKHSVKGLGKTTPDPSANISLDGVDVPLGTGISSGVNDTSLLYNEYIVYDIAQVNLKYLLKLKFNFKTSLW
From the text: After the reaction was completed, the cells were washed once with ice-cold PBS and the bound radioactivity was counted and analyzed as described above.
Competitive dissociation constants (Ki values) were derived from the Cheng and Prussoff equation [24]: Ki=IC50/1+Lt/Kd
Data from competitive binding were transformed to determine the pseudo-Hill coefficient, n′H, using the following equation: logBs/B0−Bs=n^′HlogI−n^′HlogIC50, in which the negative of the Hill slope, n′H, can be readily calculated by a linear regression of plotting logBs/B0−Bs vs. logI , as we published [22, 25].

intratumoral PAR = tested on: intratumoral PAR; parameters: method as in PMID 26652717; details: at 2 and 8 h time points, partial recovery at 24 h; cited from earlier work
P-glycoprotein (P-gp) = tested on: P-glycoprotein (P-gp); parameters: method as in PMID 31770456; details: cited from earlier work

tumor uptake (PC-3 prostate tumors; 4 h post-injection, i.v., SCID mice): 3.78 ± 0.55 %ID/gram
tumor uptake (PC-3 prostate tumors; 8 h post-injection, i.v., SCID mice): 4.52 ± 0.32 %ID/gram
uptake in liver, spleen, kidney, and pancreas (PC-3 prostate tumors; after 4 h, only slightly reduced at 8 h): High uptake
uptake in bone marrow (PC-3 prostate tumors; at 4 and 8 h): high
time for clearance of radioactivity from the blood (PC-3 prostate tumors; blood, i.v., SCID mice): ≤ 4 h
brain uptake (PC-3 prostate tumors; brain, 4 h post-injection, i.v., SCID mice): 0.05 ± 0.01 %ID/gram
SMILES: Cn1ncnc1[C@H]1c2n[nH]c(=O)c3cc(F)cc(c23)N[C@@H]1c1ccc([18F])cc1 [[^18F]talazoparib]

Ki (PARP-1): 1.92 ± 0.41 nM
pseudoHill coefficient n′H (PARP-1): 1.24 ± 0.24
SMILES: Cn1ncnc1C1c2n[nH]c(=O)c3cc(F)cc(c23)NC1c1ccc(Br)cc1 (centres unmarked) [Compound 3b, 8-(4-bromophenyl)-5-fluoro-9-(1-methyl-1H-1,2,4-triazol-5-yl)-2,7,8,9-tetrahydro-3H-pyrido[4,3,2-de]phthalazin-3-one]

Ki (PARP-1): 1.73 ± 0.43 nM
pseudoHill coefficient n′H (PARP-1): 1.01 ± 0.20
SMILES: Cn1ncnc1C1c2n[nH]c(=O)c3cc(F)cc(c23)NC1c1ccc(I)cc1 (centres unmarked) [Compound 3c, 8-(4-iodophenyl)-5-fluoro-9-(1-methyl-1H-1,2,4-triazol-5-yl)-2,7,8,9-tetrahydro-3H-pyrido[4,3,2-de]phthalazin-3-one]

Ki (PARP-1): > 20000 nM
displacement of [3H]WC-DZ (PARP-1; U251MG cells, 0.1 nM to 1 µM): No apparent displacement
SMILES: CCN1CCC[C@H]1CNC(=O)c1c(O)c(Cl)cc(Cl)c1OC [Raclopride, reference compound]

SMILES: Cn1ncnc1[C@H]1c2n[nH]c(=O)c3cc(F)cc(c23)N[C@@H]1c1ccc(F)cc1 [3a″, (8S,9R)-5-Fluoro-8-(4-fluorophenyl)-9-(1-methyl-1H-1,2,4-triazol-5-yl)-2,7,8,9-tetrahydro-3H-pyrido[4,3,2-de]phthalazin-3-one]
intratumoral PAR concentration (intratumoral PAR): significantly attenuated
P-glycoprotein substrate (P-glycoprotein (P-gp)): substrate of P-glycoprotein (P-gp)
